Measured values: patent publication US20020061345A1, “PROCEDURE FOR PREPARING A FOOD ADDITIVE, AND AN ADDITIVE AND ITS USE” (priority 1996, published 2002)
Marks after values point to notes of the source that are not given here.

What was measured:
[1] = Example 7 feeding test in growing pigs; assay type: in vivo; details: Olagvindox 50 ppm, 33 test days
Protocol: An amount of a product obtained from baking yeast by hydrolytic treatment, was added to the fodder of growing pigs. The measurement was implemented as in the preceding example.

[2] = Example 6 feeding test in growing piglets, growth and diarrhoea; assay type: in vivo
Protocol: An amount of a product obtained from baking yeast by hydrolytic treatment, was added to the fodder of growing piglets. The fodder for the reference group contained Olaqvindox chemotherapeutic substance, 50 mg/kg. In the fodder for the yeast group, instead of Olaqvindox, yeast fraction was added in an amount of 0.5%.

[3] = Example 5 feeding test, development of piglets; assay type: in vivo, pigs
Excerpt: In this test, four equal groups of pigs were fed with the following fodders:
Group 1: basic fodder (reference)
Group 2: basic fodder+40 ppm Avilamysine
Group 3: basic fodder+product prepared from yeast by hydrolytic treatment, in an amount of 0.5 w-% (of dry matter)
Group 4: basic fodder+product prepared from yeast by hydrolytic treatment, in an amount of 1.0 w-% (of dry matter).

[4] = group 2, basic fodder + 40 ppm Avilamysine

Compound | Fodder efficiency kg/kg [1] [kg/kg] | Additional growth, g/day ([1]; initial weight 21.7 kg) | Additional growth ([2]; Olaqvindox 50 ppm in fodder) [g/day] | Fodder efficiency kg/kg ([2]; Olaqvindox 50 ppm in fodder) [kg/kg] | Final weight ([2]; Olaqvindox 50 ppm in fodder, initial weight 7.10 kg) [kg] | Diarrhoea index ([2]; Olaqvindox 50 ppm, average, 1 = normal faeces, 2 = loose faeces, 3 = watery diarrhoea) | Treatments for diarrhoea, % of farrows ([2]; Olaqvindox 50 ppm, treated with an antibiotic or with zinc oxide because of diarrhoea) | effect on growth and fodder consumption compared with the reference group ([3]; 40 ppm Avilamysine) | ADG [3, 4] [g/day] | FCR kg fodder/kg Weight increase [3, 4] [kg fodder/kg] | Final weight ([3]; group 2, basic fodder + 40 ppm Avilamysine, starting weight 10.6 kg) [kg]
Cc1c(C(=O)NCCO)[n+]([O-])c2ccccc2[n+]1[O-] [Olaqvindox] | 2.07 | 777^a g/day | 255 | 1.61 | 12.47 | 2.5 | 100 % of farrows | – | – | – | –
Avilamysine | – | – | – | – | – | – | – | increased the growth and fodder consumption effectively | 502 | 1.81 | 24.1
